The results in this text go back to ChEMBL document CHEMBL1201862, “PubChem BioAssay data set” (2004).

One experiment concerns the target T1, Estrogen receptor (Homo sapiens, UniProt P03372).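 Further: potency for inhibiting coactivator peptide recruitment to the receptor.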
T1 sequence (P03372 whole entry): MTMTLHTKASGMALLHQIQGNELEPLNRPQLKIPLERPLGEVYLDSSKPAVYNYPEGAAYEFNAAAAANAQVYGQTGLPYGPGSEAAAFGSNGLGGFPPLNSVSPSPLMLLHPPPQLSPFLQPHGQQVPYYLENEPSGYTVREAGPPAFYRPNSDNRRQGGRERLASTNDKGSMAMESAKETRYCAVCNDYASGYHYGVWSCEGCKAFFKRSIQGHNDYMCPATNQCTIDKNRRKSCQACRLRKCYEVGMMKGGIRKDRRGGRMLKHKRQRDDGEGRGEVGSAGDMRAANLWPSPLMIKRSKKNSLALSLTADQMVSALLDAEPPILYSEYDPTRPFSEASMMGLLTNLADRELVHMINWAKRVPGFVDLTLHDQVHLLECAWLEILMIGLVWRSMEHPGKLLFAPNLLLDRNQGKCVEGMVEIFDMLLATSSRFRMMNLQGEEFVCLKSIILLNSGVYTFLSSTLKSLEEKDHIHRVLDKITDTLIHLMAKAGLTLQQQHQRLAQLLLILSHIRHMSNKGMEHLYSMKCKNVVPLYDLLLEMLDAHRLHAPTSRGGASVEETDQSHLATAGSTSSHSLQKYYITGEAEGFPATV

The next experiment has as its target Cytochrome P450 2D6 (Homo sapiens, UniProt P10635). The experiment is described as follows: qHTS Assay for Inhibitors and Substrates of Cytochrome P450 2D6. [Related pubchem assays: 410 ]. As to conditions: read-out: Potency. In kind it is ADME.
Experiment [1] addresses Glyceraldehyde-3-phosphate dehydrogenase (Homo sapiens, UniProt P04406).
Experiment [2] deals with T2, Corticotropin-releasing factor receptor 2/Corticotropin-releasing factor-binding protein (Homo sapiens, UniProt P24387+Q13324).
T2 sequence (Q13324 whole entry): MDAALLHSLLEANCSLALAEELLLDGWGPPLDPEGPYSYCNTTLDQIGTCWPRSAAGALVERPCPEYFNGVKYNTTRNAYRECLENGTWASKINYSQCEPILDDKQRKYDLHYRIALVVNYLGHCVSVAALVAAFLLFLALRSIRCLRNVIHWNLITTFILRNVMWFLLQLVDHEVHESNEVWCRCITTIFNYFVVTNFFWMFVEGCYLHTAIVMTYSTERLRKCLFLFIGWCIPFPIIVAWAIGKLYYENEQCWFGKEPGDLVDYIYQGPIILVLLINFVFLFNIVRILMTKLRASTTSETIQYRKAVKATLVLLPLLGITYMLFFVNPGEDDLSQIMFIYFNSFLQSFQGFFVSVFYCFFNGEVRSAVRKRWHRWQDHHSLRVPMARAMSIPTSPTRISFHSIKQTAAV
T2 sequence (P24387 whole entry): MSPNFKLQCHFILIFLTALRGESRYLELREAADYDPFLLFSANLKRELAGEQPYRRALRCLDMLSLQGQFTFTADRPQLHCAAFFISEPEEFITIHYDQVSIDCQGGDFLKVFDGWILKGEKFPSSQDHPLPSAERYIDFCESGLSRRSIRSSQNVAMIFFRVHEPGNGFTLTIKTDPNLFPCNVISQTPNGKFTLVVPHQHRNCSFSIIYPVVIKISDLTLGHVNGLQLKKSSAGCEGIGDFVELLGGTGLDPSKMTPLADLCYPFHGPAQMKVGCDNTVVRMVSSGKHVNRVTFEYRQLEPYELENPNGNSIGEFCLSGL
The experiment is described as follows: activators of CRF receptor 2 with binding protein – uHTS hits, confirmation (AID 602473). The class given is functional. As to conditions: read-out: EC50_Mean.

Experiment [3] has as its target Luciferin 4-monooxygenase (Photinus pyralis, UniProt P08659). The experiment is described as follows: Counter Screen for Luciferase-based Assay Positives. [Related pubchem assays: 620, 618, 411 ].
The next experiment has as its system HT-1080. The experiment is described as follows: cytotoxicity in HT1080 fibrosarcoma cells, cell-based, fluorescence readout (AID 620). As to conditions: Homo sapiens. The class given is functional.
A further experiment concerns the target T3, Leucine aminopeptidase (Plasmodium falciparum 3D7, UniProt Q8IL11).
T3 sequence (Q8IL11 whole entry): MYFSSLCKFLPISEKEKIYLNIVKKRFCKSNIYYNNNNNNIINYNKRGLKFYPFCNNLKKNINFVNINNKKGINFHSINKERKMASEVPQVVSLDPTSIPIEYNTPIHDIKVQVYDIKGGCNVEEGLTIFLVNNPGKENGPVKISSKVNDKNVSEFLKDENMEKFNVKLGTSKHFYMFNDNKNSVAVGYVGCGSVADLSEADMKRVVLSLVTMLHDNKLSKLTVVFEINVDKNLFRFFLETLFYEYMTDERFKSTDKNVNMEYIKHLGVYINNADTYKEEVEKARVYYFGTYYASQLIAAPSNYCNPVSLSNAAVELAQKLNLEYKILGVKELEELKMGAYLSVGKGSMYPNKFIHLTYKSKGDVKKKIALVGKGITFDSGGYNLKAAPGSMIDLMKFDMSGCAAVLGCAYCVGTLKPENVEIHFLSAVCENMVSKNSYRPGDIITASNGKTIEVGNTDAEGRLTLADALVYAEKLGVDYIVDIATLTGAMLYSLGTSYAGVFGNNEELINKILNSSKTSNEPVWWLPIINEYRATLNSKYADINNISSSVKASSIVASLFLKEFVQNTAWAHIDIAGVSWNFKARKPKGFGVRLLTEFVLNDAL
The experiment is described as follows: P. falciparum M17LAP inhibitors, primary screen, biochemical, fluorogenic H-Leu-NHMec substrate, 1536-well (AID 1619). The class given is functional.

The target in a further experiment is Procathepsin L (Homo sapiens, UniProt P07711). The experiment is described as follows: cathepsin L inhibitors, dose response, counter-screen for M1/M17 aminopeptidase inhibitor project, biochemical, QFRET, 1536-well (AID 2214).
Another experiment concerns the target T4, Aspartyl aminopeptidase (Plasmodium falciparum 3D7, UniProt Q8I2J3).
T4 sequence (Q8I2J3 whole entry): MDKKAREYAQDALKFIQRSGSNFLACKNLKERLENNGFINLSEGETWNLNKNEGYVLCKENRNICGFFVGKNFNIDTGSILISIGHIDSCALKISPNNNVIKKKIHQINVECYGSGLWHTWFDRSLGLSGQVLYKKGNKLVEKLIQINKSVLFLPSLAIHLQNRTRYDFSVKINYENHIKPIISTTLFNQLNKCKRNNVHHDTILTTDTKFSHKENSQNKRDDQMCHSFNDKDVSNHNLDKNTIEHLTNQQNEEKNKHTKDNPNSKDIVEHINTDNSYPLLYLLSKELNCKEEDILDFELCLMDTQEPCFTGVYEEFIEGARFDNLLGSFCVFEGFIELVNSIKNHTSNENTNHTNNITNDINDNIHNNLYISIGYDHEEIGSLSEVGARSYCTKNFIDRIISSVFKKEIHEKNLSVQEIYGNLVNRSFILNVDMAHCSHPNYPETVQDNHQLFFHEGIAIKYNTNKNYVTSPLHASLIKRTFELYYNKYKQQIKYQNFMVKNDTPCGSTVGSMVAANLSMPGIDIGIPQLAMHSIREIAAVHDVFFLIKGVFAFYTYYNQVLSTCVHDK
The experiment is described as follows: Counterscreen for inhibitors of M1 and M17 aminopeptidases: QFRET-based biochemical high throughput dose response assay for inhibitors of the Plasmodium falciparum M18 Aspartyl Aminopeptidase (PFM18AAP). [Related PubChem assays: 1619 (Screening assay (M17LAP inhibitors).), 1445 (Screening assay (M1AAP inhibitors).)].

Another experiment addresses T5, Aminopeptidase N (Plasmodium falciparum FcB1/Columbia, UniProt O96935).
T5 sequence (O96935 whole entry): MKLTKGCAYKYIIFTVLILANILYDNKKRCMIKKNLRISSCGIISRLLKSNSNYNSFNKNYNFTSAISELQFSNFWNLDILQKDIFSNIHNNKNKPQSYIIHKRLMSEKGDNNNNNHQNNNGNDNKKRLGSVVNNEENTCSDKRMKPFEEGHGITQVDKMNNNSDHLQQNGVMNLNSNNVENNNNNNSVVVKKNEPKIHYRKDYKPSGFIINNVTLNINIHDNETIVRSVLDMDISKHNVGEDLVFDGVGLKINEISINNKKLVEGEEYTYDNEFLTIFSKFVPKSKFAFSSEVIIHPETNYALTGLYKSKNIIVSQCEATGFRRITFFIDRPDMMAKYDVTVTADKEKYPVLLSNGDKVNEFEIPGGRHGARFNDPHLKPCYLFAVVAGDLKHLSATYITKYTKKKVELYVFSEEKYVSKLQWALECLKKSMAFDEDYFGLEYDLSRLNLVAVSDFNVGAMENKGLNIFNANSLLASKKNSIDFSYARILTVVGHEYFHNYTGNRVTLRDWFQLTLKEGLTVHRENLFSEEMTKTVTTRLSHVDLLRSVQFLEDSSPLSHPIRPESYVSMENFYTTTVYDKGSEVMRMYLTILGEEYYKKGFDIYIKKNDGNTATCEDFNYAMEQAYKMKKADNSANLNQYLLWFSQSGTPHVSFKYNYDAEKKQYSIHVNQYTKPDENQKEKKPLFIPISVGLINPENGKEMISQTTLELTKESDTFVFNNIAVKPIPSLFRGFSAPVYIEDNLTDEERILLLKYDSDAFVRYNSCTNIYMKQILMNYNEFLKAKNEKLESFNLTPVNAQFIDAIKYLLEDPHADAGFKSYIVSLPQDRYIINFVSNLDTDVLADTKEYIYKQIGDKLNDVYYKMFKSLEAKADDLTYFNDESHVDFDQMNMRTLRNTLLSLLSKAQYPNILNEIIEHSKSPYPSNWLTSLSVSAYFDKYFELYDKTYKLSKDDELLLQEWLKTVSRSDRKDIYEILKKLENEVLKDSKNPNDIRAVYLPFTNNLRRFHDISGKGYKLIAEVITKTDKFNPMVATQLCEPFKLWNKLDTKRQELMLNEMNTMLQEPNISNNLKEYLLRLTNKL
Nature of the experiment: P. falciparum M1AAP inhibitors, biochemical, fluorogenic H-Leu-NHMec substrate, 1536-well (AID 1445). Also on record: species or system Plasmodium falciparum 3D7, 3D7.

For experiment [4], the target named is Neurotensin receptor type 1 (Homo sapiens, UniProt P30989). The class given is functional.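 Further: Image-based confirmatory dose-response assay measuring agonist activity at NTR1; NTR1-expressing U2OS osteosarcoma cells imaged for beta-arrestin GFP spot formation; agonist potency where compounds increase beta-arrestin recruitment.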
For experiment [5], the target named is DNA dC->dU-editing enzyme APOBEC-3G (Homo sapiens, UniProt Q9HC16). Nature of the experiment: Dose Response confirmation of small molecule APOBEC3G DNA Deaminase Inhibitors via a fluorescence-based single-stranded DNA deaminase assay. [Related pubchem assays (depositor defined):AID493012, AID493028]. In kind it is functional.

Molecules are shown by their SMILES. Active and inactive are the calls of the source.

Sequence of Procathepsin L (P07711 whole entry): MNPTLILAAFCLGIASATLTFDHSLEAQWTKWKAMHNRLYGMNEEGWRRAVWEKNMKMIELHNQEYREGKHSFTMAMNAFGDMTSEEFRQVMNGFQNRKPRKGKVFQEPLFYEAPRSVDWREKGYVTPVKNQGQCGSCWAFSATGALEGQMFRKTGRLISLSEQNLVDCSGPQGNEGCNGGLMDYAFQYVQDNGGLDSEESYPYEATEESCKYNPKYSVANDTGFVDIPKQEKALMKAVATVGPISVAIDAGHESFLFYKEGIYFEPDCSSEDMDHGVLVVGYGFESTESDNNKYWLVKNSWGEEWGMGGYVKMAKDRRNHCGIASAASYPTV
Sequence of Luciferin 4-monooxygenase (P08659 whole entry): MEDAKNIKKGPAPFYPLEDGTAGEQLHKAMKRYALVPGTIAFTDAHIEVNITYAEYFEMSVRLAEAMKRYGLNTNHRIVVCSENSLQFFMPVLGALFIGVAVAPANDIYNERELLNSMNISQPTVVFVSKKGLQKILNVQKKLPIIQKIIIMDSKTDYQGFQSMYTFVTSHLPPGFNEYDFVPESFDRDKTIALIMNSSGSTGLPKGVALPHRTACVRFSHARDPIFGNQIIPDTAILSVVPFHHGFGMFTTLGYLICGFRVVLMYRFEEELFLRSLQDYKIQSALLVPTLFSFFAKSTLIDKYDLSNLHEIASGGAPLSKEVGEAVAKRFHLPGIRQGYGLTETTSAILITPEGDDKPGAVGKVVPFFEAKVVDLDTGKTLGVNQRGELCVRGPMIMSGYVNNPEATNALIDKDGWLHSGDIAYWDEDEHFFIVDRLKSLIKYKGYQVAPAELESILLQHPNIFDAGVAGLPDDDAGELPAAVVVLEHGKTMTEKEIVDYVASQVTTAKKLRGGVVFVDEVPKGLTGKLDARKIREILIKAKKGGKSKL
Sequence of Glyceraldehyde-3-phosphate dehydrogenase (P04406 whole entry): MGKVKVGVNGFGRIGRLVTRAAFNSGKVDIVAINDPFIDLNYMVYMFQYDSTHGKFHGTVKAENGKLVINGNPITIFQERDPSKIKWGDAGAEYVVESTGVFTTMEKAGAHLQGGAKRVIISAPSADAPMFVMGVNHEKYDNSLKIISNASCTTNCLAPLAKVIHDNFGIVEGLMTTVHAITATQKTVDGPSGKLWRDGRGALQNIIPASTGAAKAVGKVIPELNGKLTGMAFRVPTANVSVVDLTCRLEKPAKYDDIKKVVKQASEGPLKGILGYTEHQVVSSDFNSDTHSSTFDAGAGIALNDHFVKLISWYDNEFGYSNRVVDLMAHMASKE
Sequence of DNA dC->dU-editing enzyme APOBEC-3G (Q9HC16 whole entry): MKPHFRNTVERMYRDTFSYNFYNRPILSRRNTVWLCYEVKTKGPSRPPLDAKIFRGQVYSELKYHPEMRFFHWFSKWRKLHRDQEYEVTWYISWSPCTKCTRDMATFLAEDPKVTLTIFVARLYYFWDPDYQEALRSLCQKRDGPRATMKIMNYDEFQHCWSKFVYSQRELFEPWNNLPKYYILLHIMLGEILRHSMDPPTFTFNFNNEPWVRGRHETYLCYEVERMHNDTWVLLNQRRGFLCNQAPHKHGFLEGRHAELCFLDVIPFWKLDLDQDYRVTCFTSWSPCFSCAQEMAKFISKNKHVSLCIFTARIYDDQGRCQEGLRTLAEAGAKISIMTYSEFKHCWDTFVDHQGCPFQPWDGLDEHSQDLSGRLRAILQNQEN
Sequence of Cytochrome P450 2D6 (P10635 whole entry): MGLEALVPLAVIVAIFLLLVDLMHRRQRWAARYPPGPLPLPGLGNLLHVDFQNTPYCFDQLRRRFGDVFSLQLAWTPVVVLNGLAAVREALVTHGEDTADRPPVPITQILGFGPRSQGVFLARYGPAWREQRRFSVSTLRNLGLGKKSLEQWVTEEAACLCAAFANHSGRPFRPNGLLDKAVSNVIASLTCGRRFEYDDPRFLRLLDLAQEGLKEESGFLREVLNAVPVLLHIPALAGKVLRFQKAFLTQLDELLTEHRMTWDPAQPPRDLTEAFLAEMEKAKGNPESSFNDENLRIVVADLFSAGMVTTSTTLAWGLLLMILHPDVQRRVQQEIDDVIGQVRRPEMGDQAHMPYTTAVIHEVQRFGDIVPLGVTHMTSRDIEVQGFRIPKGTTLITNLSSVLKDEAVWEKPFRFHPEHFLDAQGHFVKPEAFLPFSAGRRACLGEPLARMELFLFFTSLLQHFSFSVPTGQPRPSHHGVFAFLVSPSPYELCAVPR
Sequence of Neurotensin receptor type 1 (P30989 whole entry): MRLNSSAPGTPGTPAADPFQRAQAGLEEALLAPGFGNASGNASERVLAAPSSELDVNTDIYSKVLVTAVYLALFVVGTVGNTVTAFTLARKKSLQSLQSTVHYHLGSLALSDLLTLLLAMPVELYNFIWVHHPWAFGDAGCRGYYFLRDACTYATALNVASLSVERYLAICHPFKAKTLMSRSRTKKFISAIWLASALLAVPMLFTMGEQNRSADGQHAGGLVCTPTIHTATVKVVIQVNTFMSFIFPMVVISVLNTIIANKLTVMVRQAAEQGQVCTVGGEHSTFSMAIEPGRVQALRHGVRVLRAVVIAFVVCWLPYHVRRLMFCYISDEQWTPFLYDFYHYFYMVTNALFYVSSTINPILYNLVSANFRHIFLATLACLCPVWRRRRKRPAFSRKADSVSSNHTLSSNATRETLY

As for `COc1ccc2cc3c(N)nn(C(=O)Cc4ccc(Cl)cc4)c3nc2c1`, at Estrogen receptor, the half-maximal inhibitory concentration (IC50) is 24.8 µM (active).

Take `Cc1ccc(C(=O)[C@@H]2[C@@H]3[C@@H](C(=O)[C@@H]4OC[C@H]3O4)[C@@H]3C=Cc4ccccc4N23)cc1`: at Cytochrome P450 2D6, the AC50 was 20 µM (inconclusive).

In the case of `O=S(=O)(NCc1csc(-c2cccnc2)n1)c1cccs1`, the IC50 at Estrogen receptor was 18 µM (active).

Regarding `COCCn1c(C)cc(C(=O)CSc2ccc(NC(C)=O)cc2)c1C`, in experiment [1], the IC50 was > 100 µM (not active). The values for the EC50 (in experiment [2]; in [3]; with HT-1080) were > 53 µM (inactive), 3.66 µM (active) and > 50 µM (not active), respectively.

Regarding `C=CCn1c(SCC(=O)Nc2cccc3ccccc23)nc(=O)c(CC)c1O`, the half-maximal inhibitory concentration (IC50) is 4.06 µM (active) at Leucine aminopeptidase, > 59.6 µM (not active) against Procathepsin L and > 73.5 µM (not active) against Aspartyl aminopeptidase.

With `O=C(Nn1c(C2CCC2)nc2ccccc2c1=O)c1cccs1`, the values for the 50% inhibitory concentration (IC50) against Procathepsin L, at Aminopeptidase N and against Aspartyl aminopeptidase were > 59.6 µM (not active), 8.54 µM (active) and > 73.5 µM (not active), respectively.

Regarding `Cc1ccc(NC(=O)CSc2nc(O)c3c(n2)CCC3)cc1C`, the 50% inhibitory concentration (IC50) at Leucine aminopeptidase was 5.9 µM (active); on Procathepsin L, > 59.6 µM (not active); on Aspartyl aminopeptidase, > 73.5 µM (not active).

Consider `CCCCN(C)C(=O)c1cc2cc3ccc(OC)cc3nc2s1`, for which the EC50 in [3] is 0.22 µM (active); in the experiment with HT-1080, > 50 µM (not active).

As for `COC(=O)c1ccc(/C=C/C(=O)OCC(=O)Nc2sccc2C(N)=O)cc1`, the EC50 in experiment [4] was 18.9 µM (active).

For the molecule `CCOC(=O)c1c(N)sn(-c2ccccc2C)c1=S`, the IC50 in [5] was 45.6 µM (active).
